The results in this text go back to patent US20110098288A1, “SULFONAMIDES AS ZAP-70 INHIBITORS” (priority 2008, published 2011).

For one experiment, the target named is T1, ZAP-70 (Homo sapiens, UniProt P43403).
T1 construct: endogenous in cells; host or cells: cell lysate
T1 sequence (P43403 1-619): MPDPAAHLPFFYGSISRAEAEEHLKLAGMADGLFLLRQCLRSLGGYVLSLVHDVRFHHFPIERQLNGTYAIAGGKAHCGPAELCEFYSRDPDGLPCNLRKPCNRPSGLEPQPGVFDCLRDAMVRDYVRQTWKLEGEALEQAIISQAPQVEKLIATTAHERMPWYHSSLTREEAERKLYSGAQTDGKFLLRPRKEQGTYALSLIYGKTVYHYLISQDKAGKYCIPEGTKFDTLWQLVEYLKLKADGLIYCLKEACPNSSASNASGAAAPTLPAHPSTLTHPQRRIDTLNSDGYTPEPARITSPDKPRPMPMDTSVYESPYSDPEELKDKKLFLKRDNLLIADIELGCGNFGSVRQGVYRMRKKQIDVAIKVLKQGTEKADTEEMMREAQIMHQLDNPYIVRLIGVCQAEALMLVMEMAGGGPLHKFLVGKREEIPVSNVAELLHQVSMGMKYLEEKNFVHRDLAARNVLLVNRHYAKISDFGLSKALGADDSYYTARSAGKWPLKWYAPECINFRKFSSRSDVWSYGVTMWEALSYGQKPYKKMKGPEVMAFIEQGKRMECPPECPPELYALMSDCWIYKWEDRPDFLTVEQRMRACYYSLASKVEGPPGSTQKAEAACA
Description: ZAP-70 kinobeads assay. In kind it is binding. The settings on record: competition with immobilized aminopyrido-pyrimidine ligand 24 in cell lysate; ZAP-70 detected by dot blot. The gist of the method:
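Competition binding format: compounds compete with a bead-immobilized aminopyrido-pyrimidine ligand for ZAP-70 in cell lysate. After bead separation and elution, bound ZAP-70 measured by antibody dot blot with infrared read-out.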

The next experiment concerns Jurkat cells. The experiment in a line: Calcium release assay (Fluo-4 flow cytometry after anti-CD3 stimulation). In kind it is cell-based. The settings on record: Homo sapiens, Jurkat cell line J77, anti-CD3 activation, read-out: IC50 (Calcium ion release in cells). The gist of the method: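 Jurkat J77 cells loaded with Fluo-4/Pluronic F-127 for 30 min at 37 °C, then incubated with compound at room temperature in the dark in PBS–CaCl2 with 10% FCS. Stimulation with anti-CD3 (0.2 μg/ml final) plus GAM (0.75 μg/ml final) at 37 °C, then flow-cytometric Ca2+ fluorescence acquired for 200 s.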
Background: Flow cytometry measures light scatter and fluorescence of single cells or particles in a stream.

Structures can show the parent of a compound that is named as a salt.

For orientation: IC50 means the point on the concentration scale where inhibition reaches its midpoint. For `COc1cc(Nc2ncc(F)c(Nc3ccc(C)cc3NS(C)(=O)=O)n2)cc(OC)c1OC` [Example 170, N-(2-(5-Fluoro-2-(3,4,5-trimethoxyphenylamino)pyrimidin-4-ylamino)-5-methylphenyl)methanesulfonamide], the IC50 on ZAP-70 and with Jurkat cells was 0.1 to 1 µM in each case.

As for `COc1cc(Nc2ncc(Cl)c(Nc3ccccc3NS(C)(=O)=O)n2)ccc1OCCN1CCCC1` [Example 141, N-(2-(5-chloro-2-(3-methoxy-4-(2-(pyrrolidin-1-yl)ethoxy)phenylamino)pyrimidin-4-ylamino)phenyl)methanesulfonamide], the IC50 at ZAP-70 and in the experiment with Jurkat cells was under 0.1 µM throughout.

For `COc1cc(Nc2ncc(F)c(Nc3cccc(C)c3NS(C)(=O)=O)n2)cc(OC(C)C)c1OC` [Example 118, N-(2-(5-fluoro-2-(3-isopropoxy-4,5-dimethoxyphenylamino)pyrimidin-4-ylamino)-6-methylphenyl)methanesulfonamide], the values for the half-maximal inhibitory concentration (IC50) on ZAP-70 and in the experiment on Jurkat cells were under 0.1 µM and 0.1 to 1 µM, respectively.

Take `CS(=O)(=O)Nc1ccccc1Nc1nc(Nc2ccc(OCCCN3CCCC3)cc2)ncc1F` [Example 92]: the concentration for half-maximal inhibition (IC50) at ZAP-70 and in the experiment on Jurkat cells was 0.1 to 1 µM each time.

Turning to `CCNC(=O)COc1cccc(Nc2ncc(F)c(Nc3ccccc3NS(C)(=O)=O)n2)c1` [Example 101, N-ethyl-2-(3-(5-fluoro-4-(2-(methylsulfonamido)phenylamino)pyrimidin-2-ylamino)phenoxy)acetamide], the IC50 on ZAP-70 and with Jurkat cells was 0.1 to 1 µM each time.

Turning to `CS(=O)(=O)Nc1ccccc1Nc1nc(Nc2ccc(NCCN3CCCC3)cc2)ncc1F` [Example 93, N-(2-(5-fluoro-2-(4-(2-pyrrolidin-1-yl)ethylamino)phenylamino)pyrimidin-4-ylamino)phenyl)methanesulfonamide formate], the IC50 on ZAP-70 and in the experiment on Jurkat cells was 0.1 to 1 µM throughout.

Turning to `CS(=O)(=O)Nc1ccccc1Nc1nc(Nc2ccc(F)cc2)ncc1F` [Example 2, N-(2-(5-fluoro-2-(4-fluorophenylamino)pyrimidin-4-ylamino)phenyl)methanesulfonamide], the values for the half-maximal inhibitory concentration (IC50) at ZAP-70 and in the experiment with Jurkat cells were 1 to 10 µM and 0.1 to 1 µM, respectively.

Take `CS(=O)(=O)Nc1ccccc1Nc1nc(Nc2cccc(OCCO)c2)ncc1F` [Example 78, N-(2-(5-fluoro-2-(3-(2-hydroxyethoxy)phenylamino)pyrimidin-4-ylamino)phenyl)methanesulfonamide]: the IC50 at ZAP-70 was 0.1 to 1 µM; in the experiment on Jurkat cells it was under 0.1 µM.

For the compound `COc1cc(Nc2ncc(F)c(Nc3ccc(F)c(C)c3NS(C)(=O)=O)n2)cc(OC)c1OC` [Example 162, N-(3-fluoro-6-(5-fluoro-2-(3,4,5-trimethoxyphenylamino)pyrimidin-4-ylamino)-2-methylphenyl)methanesulfonamide], the concentration for half-maximal inhibition (IC50) on ZAP-70 and with Jurkat cells was 0.1 to 1 µM in each case.

For the compound `CN1CCN(CCOc2ccc(Nc3ncc(F)c(Nc4ccccc4NS(C)(=O)=O)n3)cc2)CC1` [Example 89, N-(2-(5-Fluoro-2-(4-(2-(4-methylpiperazin-1-yl)ethoxy)phenylamino)pyrimidin-4-ylamino)phenyl)methanesulfonamide], the 50% inhibitory concentration (IC50) at ZAP-70 and in the experiment with Jurkat cells was 0.1 to 1 µM throughout.

Take `CN1CCCCC1COc1cccc(Nc2ncc(Cl)c(Nc3ccccc3NS(C)(=O)=O)n2)c1` (stereo not drawn) [Example 145, N-(2-(5-chloro-2-(3-((1-methylpiperidin-2-yl)methoxy)phenylamino)pyrimidin-4-ylamino)phenyl)methanesulfonamide]: the IC50 was under 0.1 µM on ZAP-70 and 0.1 to 1 µM in the experiment with Jurkat cells.

Take `CS(=O)(=O)Nc1ccccc1Nc1nc(Nc2ccc(NC(=O)CN3CCCC3)cc2)ncc1Cl` [Example 132, N-(4-(5-chloro-4-(2-(methylsulfonamido)phenylamino)pyrimidin-2-ylamino)phenyl)-2-(pyrrolidin-1-yl)acetamide]: the half-inhibitory concentration (IC50) at ZAP-70 was 0.1 to 1 µM; in the experiment with Jurkat cells it was under 0.1 µM.

`CCN(c1ccccc1Nc1nc(Nc2cc(OC)c(OC)c(OC)c2)ncc1F)S(C)(=O)=O` [Example 154, N-ethyl-N-(2-(5-fluoro-2-(3,4,5-trimethoxyphenylamino)pyrimidin-4-ylamino)phenyl)methanesulfonamide]: the values for the IC50 on ZAP-70 and with Jurkat cells were 0.1 to 1 µM and under 0.1 µM, respectively.

On to `CS(=O)(=O)Nc1ccccc1Nc1nc(Nc2cccc(OCC3CCNCC3)c2)ncc1Cl` [Example 129, N-(2-(5-chloro-2-(3-(piperidin-4-ylmethoxy)phenylamino)pyrimidin-4-ylamino)phenyl)methanesulfonamide], for which the half-inhibitory concentration (IC50) at ZAP-70 was under 0.1 µM; in the experiment with Jurkat cells, 0.1 to 1 µM.

Regarding `COc1cc(Nc2ncc(F)c(Nc3ccccc3NS(C)(=O)=O)n2)ccc1N1CCCC1` [Example 88, N-(2-(5-fluoro-2-(3-methoxy-4-(pyrrolidin-1-yl)phenylamino)pyrimidin-4-ylamino)phenyl)methanesulfonamide], the IC50 on ZAP-70 and in the experiment on Jurkat cells was 0.1 to 1 µM each time.

Turning to `COc1cc(Nc2ncc(Cl)c(Nc3cccc(C)c3NS(C)(=O)=O)n2)cc(OC)c1OC` [Example 160, N-(2-(5-chloro-2-(3,4,5-trimethoxyphenylamino)pyrimidin-4-ylamino)-6-methylphenyl)methanesulfonamide], the 50% inhibitory concentration (IC50) on ZAP-70 and in the experiment on Jurkat cells was under 0.1 µM in each case.

Regarding `CN(C)c1ccc(Nc2ncc(F)c(Nc3ccccc3NS(C)(=O)=O)n2)cc1` [Example 7, N-(2-(2-(4-(dimethylamino)phenylamino)-5-fluoropyrimidin-4-ylamino)phenyl)methanesulfonamide], the IC50 at ZAP-70 and in the experiment with Jurkat cells was 0.1 to 1 µM in each case.

On to `COc1cc(Nc2ncc(Cl)c(Nc3ccccc3NS(C)(=O)=O)n2)cc(OCC(C)C)c1OC` [Example 137, N-(2-(5-chloro-2-(3-isobutoxy-4,5-dimethoxyphenylamino)pyrimidin-4-ylamino)phenyl)methanesulfonamide], for which the results for the concentration for half-maximal inhibition (IC50) at ZAP-70 and in the experiment with Jurkat cells were under 0.1 µM and 0.1 to 1 µM, respectively.
